Experimental data: US5925668A, “Thioctic metabolites and methods of use thereof” (priority 1998, dated 1999)

Tests used:
[1] = Stability in aqueous solutions; format: physicochemical; settings: compared to plasma
human erythrocytes = settings: cited from earlier work
human cells in culture = settings: cited from earlier work
[2] = Plasma pharmacokinetics and metabolism of lipoic acid after oral administration of 1 gram R-lipoic acid to a healthy volunteer (HPLC/ECD); format: in vivo, human
Experimental: The HPLC system consisted of a pump (thermo separation products, Spectra SERLES P100,Breda, the Netherlands), an auto-injector (Gilson, Meyvis, model 232 XL, Bergen op Zoom, the Netherlands) with a […] sample loop and a dilutor (Gilson, Meyvis, model 401 C, Bergen op Zoom, the Netherlands). The system was equipped with an electrochemical detector (Coulochem ESA, model 5100 A, Interscience, Breda, the Netherlands) and an analytical cell (ESA, model 5010). Interscience, Breda, the Netherlands) which consisted of two cell compartments.
The separations were performed using a Hypersil C 18 column (125 mm×4.6 mm i.d., […] particle size) and a mobile phase of phosphate buffer (50 mM KH2 PO4 /H3 PO4, pH 2.7) and acetonitrile (65:35, v/v). Before use, the eluent was vacuum filtrated over a […] filter. The flow rate was 0.7 ml/min.
Sample Collection and Preparation
(§1) To a healthy volunteer (82 kg), who fasted overnight, 1 gram of R-lipoic acid (4 capsules of 250 mg) was administered orally. At several time points (0-5 hr), blood samples of 3 ml were taken from a venous cannula into Li-heparine containing tubes. The samples were centrifuged (2000 g at 4° C. for 5 min) and the plasma was analyzed immediately. The proteins in the plasma were precipitated by adding 1 ml ethanol and […] 85% (g/g) H3 PO4 to […] plasma. Thereafter, the sample was thoroughly mixed on a vortex mixer and placed on ice. After 15 min it was centrifuged at 2000 g for 10 min at 4° C. […] of the supernatant were brought onto the column. Quality control samples were prepared by spiking plasma with a small volume (less than 1%) of an ethanol solution of the compound.
For the elucidation of the structure of the metabolites, the plasma obtained at 69, 92 and 119 min was pooled (approximate total volume was 3 ml). The pooled plasma was acidified with 3 ml 3 M sulfuric acid. Thereafter, the sample was extracted twice with 12 ml HPLC-grade ethylacetate (Baker Phillipsburg, N.J.). After evaporation of the ethylacetate the compounds were methylated with diazomethane for 30 min at room temperature. Subsequently, the compounds were dissolved in […] ethanol. A volume of […] was injected on a GC/MS system using a split injection ratio of 1/15. The instrument used was a HP 5890 GC equipped with a HP 5970 mass selective detector. Gas chromatography was performed on a CPSil 5 CB WCOT capillary column (25 m, […] i.d., […]; Chrompack, Middelburg, the Netherlands). While the temperature of the injector and transfer line were kept at 250° C., two oven temperature programs were required to obtain satisfactory separation of all lipoic acid related components from endogenous plasma components. The oven temperature was programmed from 60° C. (kept for 2 min) to 180° C. (at 20° C./min) with an isothermal period (10 min) and subsequent temperature increase to 288° C. (at 20° C./min) and another isothermal period; this produced satisfactory results for all components except bisnorlipoic acid. Bisnorlipoic acid could be separated from background components by using a program from 60° C. (kept for 2 min) to 160° C. (at 20° C./min with an isothermal period (15 min) and subsequent raise to 288° C. (at 20° C./min). Detection was performed by using 70 eV impact ionization.
The Pharmocokinetic Analysis
A volunteer was given 1 gram R-lipoic acid. […] Somewhat later, an unknown metabolite was observed which eluted at 5.5 min (peak nr. 6 in FIG. 2). Thereafter, a second unknown appeared which eluted at 4.7 min (peak nr. 5 in FIG. 2). Subsequently, ca. 45 after administration, bisnorlipoic acid could be detected (peak nr. 4 in FIG. 2). […] The time course of the plasma concentrations of lipoic acid, the two unknown metabolites and bisnorlipoic acid are shown in FIG. 3. Around 45 min a maximum in the lipoic acid concentration is reached. At 75 min a diet containing a high amount of fat was consumed. […]

[3] = format: in vitro ADME
Experimental: as §1
The stability of lipoic acid in plasma was evaluated by spiking plasma at 0.5 mg/ml and storing it at -25° C. […]
The stability of dihydrolipoic acid in plasma was also evaluated by spiking plasma at 0.5 mg/ml and storing it at -25° C. After approximately 20 hours, ca. 6% of the theoretical value was detected. […] Lipoic acid was also detected in the quality control samples of dihydrolipoic acid used for determination of the accuracy and precision. […] This means that the sample is immediately analyzed after blood sampling, and the pH is reduced to increase the stability of thiols. […]

With `O=C(O)CCCC[C@@H](S)CCS` (racemic) [dihydrolipoic acid] the “stability in aqueous solutions” value [1] was “more stable”.

In the case of `O=C(O)CCCC[C@@H]1CCSS1` (racemic) [lipoic acid, 1,2-dithiolane-3-pentanoic acid], the “reduction of lipoic acid into dihydrolipoic acid” value (human erythrocytes) is listed as “reduction of lipoic acid was shown”, the “reduction of lipoic acid into dihydrolipoic acid” value (human cells in culture) is listed as “reduction of lipoic acid was shown” and the “free plasma concentration before administration” value ([2]; human, in vivo) is listed as less than 7.8 ng/mL. For the same compound, the Cmax ([2]; human, in vivo, po) was 1150 ng/mL, the half life ([2]; human, in vivo, po) was 0.933 h and the “time of first appearance in plasma” value ([2]; human, in vivo, po) was 30 min. The half-life ([2]; human, in vivo, po, half life) was roughly 1 h, the Tmax ([2]; human, in vivo, po, time of (first) maximum in plasma concentration) was roughly 0.75 h and the Tmax ([2]; human, in vivo, po, time of maximum plasma concentration) was 1.53 h. For the same compound, the elimination kinetics ([2]; oral 1 gram R-lipoic acid) was “first order kinetics”, the “presence in plasma after three hours” value ([2]; oral 1 gram R-lipoic acid) was “essentially absent from the plasma” and the “time of first appearance in plasma” value ([2]; oral 1 gram R-lipoic acid) was “Thirty minutes”. For the same compound, the stability in plasma [3] was “stable in plasma for at least one week”.

With `O=C(O)CC(O)CCC1CCSS1` (centres unmarked) [3-hydroxylipoic acid] the “order of reaching maximal plasma level” value ([2]; human, in vivo, po) was “reaches its maximal level before the compound from peak 6 reaches maximum”.

With `O=C(O)CC(=O)CCC1CCSS1` (centres unmarked) [3-ketolipoic acid] the “order of reaching maximal plasma level” value ([2]; human, in vivo, po) was “reaches its maximum plasma level just before bisnorlipoic acid reaches its maximum” and the “time of maximum plasma concentration” value ([2]; human, in vivo, po) was 119 min.

For `O=C(O)CCC1CCSS1` (centres unmarked) [bisnorlipoic acid], the “time of first detection in plasma” value ([2]; human, in vivo, po) was “ca. 45” and the “time of maximum plasma concentration” value ([2]; human, in vivo, po) was 189 min.

With `O=C(O)C1CCSS1` (centres unmarked) [tetranorlipoic acid] the “detection in plasma after administration” value ([2]; human, in vivo, po) was “Neither dihydrolipoic acid nor tetranorlipoic acid were found”.
